Assay results: US20190350898A1, “METHODS AND COMPOSITIONS FOR TREATMENT OF ALZHEIMER'S DISEASE” (Neurotrope Bioscience, Inc., priority 2018, published 2019)
Values joined by “and” are separate entries in the source; they are usually repeats but may differ in a detail not shown here. Equal entries are not always repeated. “Also recorded” adds a separate entry of the source.

System: patients with advanced Alzheimer's disease
Experiment: Severe Impairment Battery (SIB) change from baseline, double-blind randomized placebo-controlled trial
Assay type: in vivo, human
Settings: for Mean slope of SIB over time, Unweight Slope / Mean slope of SIB over time, Weighted Slope: 20 μg Bryostatin; for Mean slope of SIB over time, Unweight Slope: baseline to week 15; for Mean slope of SIB over time, Weighted Slope: weighted by number of non-zero SIB scores; for SIB Total change from baseline, LS Mean (SE) / SIB Total, Difference vs. Placebo / SIB Total change from baseline, LS Mean: Bryostatin 20 μg; for SIB Delta at Ave of Week 13 and 15, Mean / SIB Delta at Week 5, Mean / SIB Delta at Week 9, Mean / SIB Delta at Week 13, Mean: Low dose (20), unadjusted; for Combined treatment effect, mean improvement in SIB over placebo: bryostatin 20 μg, post-hoc MMRM; for SIB Total LS Mean difference between 20 μg group and placebo: week 13
Method: In a double-blind, randomized, placebo-controlled trial, bryostatin was administered by intravenous infusion (˜45 minutes) to patients with advanced Alzheimer's disease for 12 weeks at doses of 20 or 40 μg. Randomization was stratified at baseline by severe (MMSE-2, 4-9) and moderate (MMSE-2, 10-15) dementia, wherein MMSE-2 refers to Mini-Mental State Examination, version 2. The MMSE or Folstein test is a 30-point questionnaire that is used extensively in clinical and research settings to measure cognitive impairment. Low scores indicate greater impairment. Version 2 of the MMSE was published in 2010, expanding the original questionnaire's usefulness in populations with milder forms of cognitive impairment. […] Importantly, this cognitive improvement persisted and increased 30 days after all bryostatin dosing had been completed.
Adults aged 55-85 with cognitive deficits present for at least 2 years, MMSE-2 of 4-15, inclusive, and a diagnosis of Alzheimer's dementia were randomly assigned to receive blinded intravenous infusions of bryostatin 24 μg or matching placebo at weeks 0 and 1. The 24 μg and 48 μg doses during the first two weeks of the 20 and 40 μg protocols respectively were considered to be “loading” doses thought to be beneficial from prior experience with Compassionate Use trial patients. Nelson et al., Alzheimers Dis. 2017 58: 521-535. In one arm, the two 24 μg doses were followed by 20 μg doses at weeks 5, 7, 9 and 11 with the Severe Impairment Battery (SIB) measured at baseline and weeks 5, 9, 13, and 15. In a second arm, the two 48 μg doses at weeks 0 and 1 were followed by 40 μg doses at weeks 5, 7, 9, and 11 with the SIB measured at baseline and weeks 5, 9, 13, and 15. The subjects were stratified by MMSE-2 in two strata: Stratum 1 (4-9) and Stratum 2 (10-15). The first primary endpoint was safety and tolerability, assessed by treatment emergent adverse events (TEAEs) with a sample size of 150 subjects randomized 1:1:1. Although efficacy was the secondary measure, the primary efficacy endpoint was SIB improvement at week 13 evaluated using a mixed model for repeated measures. A secondary efficacy endpoint was ADCS-ADL Sev. The primary safety population included all subjects who received at least 1 dose of study drug, and efficacy was evaluated in a modified intent to treat (mITT) population that received at least 1 dose of study drug and had at least one treatment evaluation. Efficacy was evaluated both as a primary end-point in the modified intent-to-treat (mITT) population and also as a primary end point in a Completers population that included all patients that completed the entire protocols as described above.
The SIB efficacy measurement at 30 days (week 15) post dosing—after all dosing had been completed (last dose administered at week 11)—was a pre-specified exploratory endpoint. Week 15 results were only included for subjects who were not re-randomized. The mixed model assumes missing at random, but order of enrollment in the trial was not random. Since order of enrollment was not random, the assumption of missing at random is not met. For this reason, only including week 15 for those who were not re-randomized is an appropriate way to estimate week 15 results, but not an appropriate way to estimate results at the earlier visits. For this reason, estimates up through week 13 are from a mixed model that only included data through week 13 and the week 15 estimates are from a separate model. Results were generated using a mixed model with repeated measures predicting change from baseline in SIB Total Score as the response variable and using baseline score, baseline MMSE strata, treatment, visit (categorical), and visit (treatment) as predictors. […]

[1] = Week 5, Completer, With Memantine
[2] = Week 5, Completer, Without Memantine
[3] = Week 9, Completer, With Memantine
[4] = Week 9, Completer, Without Memantine
[5] = Week 13, Completer, With Memantine
[6] = Week 13, Completer, Without Memantine
[7] = Week 13, FAS (mITT), With Memantine
[8] = Week 13, FAS (mITT), Without Memantine
[9] = Week 15 (30 days post dosing), Completer, MMRM
[10] = Week 15 (30 days post dosing), FAS, MMRM
[11] = Week 15, Completer, With Memantine
[12] = Week 15, Completer, Without Memantine
[13] = Week 15, FAS (mITT), Without Memantine
[14] = Memantine Exposed Patients, FAS
[15] = Memantine Treatment-Naïve Patients, FAS

## CCC/C=C/C=C/C(=O)O[C@H]1/C(=C/C(=O)OC)C[C@H]2C[C@H]([C@@H](C)O)OC(=O)C[C@H](O)C[C@@H]3C[C@H](OC(C)=O)C(C)(C)[C@](O)(C[C@@H]4C/C(=C/C(=O)OC)C[C@H](/C=C/C(C)(C)[C@]1(O)O2)O4)O3 [Bryostatin, bryostatin-1]
First column group (strata head not given, probably memantine naïve)
  Mean slope of SIB over time, Unweight Slope: 0.382
Second column group (strata head not given, probably memantine exposed)
  Mean slope of SIB over time, Unweight Slope: −0.143
First column group (probably memantine naïve)
  Mean slope of SIB over time, Weighted Slope: 0.363
Second column group (probably memantine exposed)
  Mean slope of SIB over time, Weighted Slope: −0.099
20 μg arm, week 5, after 3 doses
  SIB improvement at week 5 compared to placebo and baseline: significant improvement
20 μg dose, patients on memantine background therapy
  SIB improvement compared to placebo: no SIB improvement; also recorded: did not occur
20 μg dose, throughout the 13-week trial
  SIB improvement versus baseline and placebo: sustained improvements in SIB scores; also recorded: sustained efficacy; also recorded: sustained improvement in SIB
40 μg dose
  SIB improvement versus baseline and placebo: lack of efficacy; also recorded: no SIB improvement
Week 5, Completer, MMRM
  SIB Total change from baseline, LS Mean (SE): 1.67 (0.964)
  SIB Total, Difference vs. Placebo: 4.00
[1]
  SIB Total change from baseline, LS Mean: 0.61
  SIB Total, Difference vs. Placebo: 2.94
[2]
  SIB Total change from baseline, LS Mean: 3.22
  SIB Total, Difference vs. Placebo: 5.38
Week 5, FAS, MMRM
  SIB Total change from baseline, LS Mean (SE): 1.18 (1.102)
  SIB Total, Difference vs. Placebo: 2.96
Week 5, FAS, With Memantine
  SIB Total change from baseline, LS Mean: 0.26
  SIB Total, Difference vs. Placebo: 1.96
Week 5, FAS, Without Memantine
  SIB Total change from baseline, LS Mean: 2.74
  SIB Total, Difference vs. Placebo: 4.48
Week 9, Completer, MMRM
  SIB Total change from baseline, LS Mean (SE): 1.28 (1.119)
  SIB Total, Difference vs. Placebo: 1.85
[3]
  SIB Total change from baseline, LS Mean: −0.16
  SIB Total, Difference vs. Placebo: 0.90
[4]
  SIB Total change from baseline, LS Mean: 3.34
  SIB Total, Difference vs. Placebo: 2.66
Week 9, FAS, MMRM
  SIB Total change from baseline, LS Mean (SE): 0.94 (1.149)
  SIB Total, Difference vs. Placebo: 1.03
Week 9, FAS, With Memantine
  SIB Total change from baseline, LS Mean: −0.33
  SIB Total, Difference vs. Placebo: 0.09
Week 9, FAS, Without Memantine
  SIB Total change from baseline, LS Mean: 2.95
  SIB Total, Difference vs. Placebo: 2.08
Week 13, Completer, MMRM
  SIB Total change from baseline, LS Mean (SE): 1.51 (1.118)
  SIB Total, Difference vs. Placebo: 2.63
Week 13, Completer, MMRM, listed as bryostatin
  SIB Total, Difference vs. Placebo: 2.6
[5]
  SIB Total change from baseline, LS Mean: −0.39
  SIB Total, Difference vs. Placebo: 0.56
[6]
  SIB Total change from baseline, LS Mean: 4.22
  SIB Total, Difference vs. Placebo: 5.53
[7]
  SIB Total change from baseline, LS Mean: −0.60
  SIB Total, Difference vs. Placebo: −0.14
[8]
  SIB Total change from baseline, LS Mean: 3.83 points
  SIB Total, Difference vs. Placebo: 5.11
Week 13, FAS, MMRM
  SIB Total change from baseline, LS Mean (SE): 1.16 (1.150)
  SIB Total, Difference vs. Placebo: 1.94
[9]
  SIB Total change from baseline, LS Mean (SE): 1.96 (1.255)
  SIB Total, Difference vs. Placebo: 4.09
Week 15 (30 days post dosing), Completer, MMRM, listed as bryostatin
  SIB Total, Difference vs. Placebo: 4.0 and 4.09
[10]
  SIB Total change from baseline, LS Mean (SE): 1.77 (1.342) points
  SIB Total, Difference vs. Placebo: 3.59
Week 15 (30 days post dosing), FAS, MMRM, listed as bryostatin
  SIB Total change from baseline, LS Mean (SE): 1.77 points
[11]
  SIB Total change from baseline, LS Mean: −0.71
  SIB Total, Difference vs. Placebo: 1.45
[12]
  SIB Total change from baseline, LS Mean: 6.24
  SIB Total, Difference vs. Placebo: 6.36
[13]
  SIB Total change from baseline, LS Mean: 5.88 points
  SIB Total, Difference vs. Placebo: 5.93
Week 15, FAS, With Memantine
  SIB Total change from baseline, LS Mean: −0.83
  SIB Total, Difference vs. Placebo: 0.79
Completers, 20 μg group 'without memantine' as printed
  13-week LS Mean change in SIB (so in the source): 0.56
[14]
  SIB Delta at Ave of Week 13 and 15, Mean: −0.727
  SIB Delta at Week 5, Mean: 0.077
  SIB Delta at Week 9, Mean: −0.087
  SIB Delta at Week 13, Mean: −0.545
[15]
  SIB Delta at Ave of Week 13 and 15, Mean: 5.406
  SIB Delta at Week 5, Mean: 3.444
  SIB Delta at Week 9, Mean: 3.467
  SIB Delta at Week 13, Mean: 4.500
Memantine Exposed, adjusted for Base SIB, MMSE-2
  Treatment, adjusted slope (ANCOVA, SIB at 13/15 weeks from baseline, 20 μg Bryostatin vs placebo): −0.620 (p = 0.815)
Memantine Exposed, adjusted for Baseline SIB
  Treatment, adjusted slope (ANCOVA, SIB at 13/15 weeks from baseline, 20 μg Bryostatin vs placebo): −0.531 (p = 0.843)
Memantine Naïve, adjusted for Base SIB, MMSE-2
  Treatment, adjusted slope (ANCOVA, SIB at 13/15 weeks from baseline, 20 μg Bryostatin vs placebo): 5.923 (p = 0.002)
Memantine Naïve, adjusted for Baseline SIB
  Treatment, adjusted slope (ANCOVA, SIB at 13/15 weeks from baseline, 20 μg Bryostatin vs placebo): 5.426 (p = 0.010)
Weeks 5, 9, 13, and 15, 30-Day Follow-up population
  Combined treatment effect, mean improvement in SIB over placebo: 4.721
Weeks 5, 9, and 13, Completer population
  Combined treatment effect, mean improvement in SIB over placebo: 3.089
Weeks 5, 9, and 13, FAS population
  Combined treatment effect, mean improvement in SIB over placebo: 2.146
AChEI non-users
  SIB Total LS Mean difference between 20 μg group and placebo: 2.00
AChEI users
  SIB Total LS Mean difference between 20 μg group and placebo: 2.09
